Entries after “also recorded” stand apart in the source; their conditions may differ.
Test: Dissolution in the aqueous phase (C phase) of the O/W cosmetic composition
Format: physicochemical
Conditions: 5.00 mass % in C phase (aqueous phase) of O/W formulation of Comparative Example 4
Source text: (4) The gel emulsion was mixed with the components of C phase (aqueous phase), thereby preparing an O/W cosmetic composition. […] Hydrophobized fine particle titanium oxide” alone, the sunscreen cosmetic of Comparative Example 3 simultaneously containing “9. Trans-resveratrol aglycone,” which was not a polysaccharide, and “7. […] Since it is generally difficult to apply the formulation that could not be produced in such a small lot experiment to mass production, the production of emulsified cosmetic compositions for use in sunscreen containing trans-resveratrol monosaccharide glycoside turned out to be impractical.

Solubility in the aqueous phase / water solubility (listed as resveratrol monosaccharide glycoside): could not be dissolved uniformly
SMILES: OC[C@H]1O[C@@H](Oc2cc(O)cc(/C=C/c3ccc(O)cc3)c2)[C@H](O)[C@@H](O)[C@@H]1O [piceid, Piceid]
Solubility in the aqueous phase / water solubility: could not be dissolved; also recorded: insufficient

Reference: US11458079B2, “Sunscreen cosmetic” (JO COSMETICS CO., LTD., priority 2019, dated 2022)
